Assay results reported in US20240150843A1, “METHODS AND MATERIALS FOR IDENTIFYING MYELOMA STAGE AND DRUG SENSITIVITY AND TREATING MYELOMA” (Mayo Foundation for Medical Education and Research, priority 2021, published 2024).

Tests used:
[1] = test system: JJN3 cells; experiment: MTT assay, PBK inhibitor alone or combined with lenalidomide or bortezomib; assay type: cell-based, human; conditions: JJN3 (IMiD resistant cell line)
Procedure: (§1) FIGS. 11A and 11B show MM cell growth and drug response after depletion of PRR11 using CRISPR-Cas9 technology or inhibition of PBK in HMCLs. (A) The lentivirus harboring non-targeting control (NS) and two PRR11 CRISPR gRNAs (#1 and #2) expressing cassette were used to infect two MM cell lines (JJN3 and […]). After confirming depletion of PRR11 in HMCLs by western blot (bottom), an MTT assay was performed to evaluate cell proliferation and drug response to lenalidomide or bortezomib in both control virus-transduced cells and cells with PRR11 depletion. Depletion of PRR11 neither changed MM cell proliferation nor affected lenalidomide and bortezomib sensitivity. (B) JJN3 and XG1LenRes, IMiD resistant cell lines, were treated with a PBK specific inhibitor, HI-TOPK-032 alone (Calbiochem) or combined with either lenalidomide (Len) or bortezomib (Bor) to evaluate synergy by the MTT assay. Inhibition of PBK activity using Hi-TOPK-032, enhanced both lenalidomide and bortezomib sensitivity in JJN3 and XG1LenRes cells.
(§2) Analysis of NM cell proliferation and drug response after modulating PRR11 expression and PBK1 activity: PRR11 and PBK1 expression also was associated with survival and drug response in the CoMMpass dataset. Using CRISPR-Cas9 technology, MM cell proliferation and drug response were investigated after depletion of PRR11. Briefly, the lentivirus harboring non-targeting control and two PRR11 CRISPR gRNA expressing cassettes were prepared and used to infect MM cell lines using methods described elsewhere (Ran et al., Nat Protoc 8(11):2281-2308, 2013; and Zhu et al., Cancer Res 77(16):4317-4327, 2017). After confirming depletion of PRR11 in HMCLs by western blot, an MTT assay was performed to evaluate cell proliferation and drug response to lenalidomide or bortezomib in both control virus-transduced cells and cells with PRR11 depletion. For PBK, JJN3 and XG1LenRes (IMiD resistant cell lines) were treated with a PBK specific inhibitor (HI-TOPK-032; Calbiochem; San Diego, CA) either alone or in combination with either lenalidomide or bortezomib to evaluate their effects by MTT assay.

[2] = test system: XG1LenRes cells; experiment: as above; assay type: cell-based, human; conditions: XG1LenRes (IMiD resistant cell line)
Procedure: as §1, §2

N#Cc1c2nc3ccccc3nc2n2ccc(NC(=O)c3cccs3)cc12 [Hi-TOPK-032]
enhanced: bortezomib sensitivity ([1]; combined with bortezomib) | lenalidomide sensitivity ([1]; combined with lenalidomide) | bortezomib sensitivity ([2]; combined with bortezomib) | lenalidomide sensitivity ([2]; combined with lenalidomide)
